Measurements published in ChEMBL document CHEMBL3227945, “Synthesis of all the stereoisomers of statine (4-amino-3-hydroxy-6-methylheptanoic acid). Inhibition of pepsin activity by N-carbobenzoxy-L-valyl-L-valyl-statine derived from the four stereoisomers” (J Med Chem, 1979).
In brackets after ≈: the same amount, converted by molar mass. One block for each molecule: values may come before it.

Columns and labels:
Sus scrofa [1] = organism: Sus scrofa; assay: Inhibition of porcine pepsin activity assessed as hydrolysis of 0.5% hemoglobin solution substrate after 1 hr
Sus scrofa [2] = organism: Sus scrofa; assay: Inhibition of porcine pepsin activity assessed as hydrolysis of N-Cbz-L-Pheylalanyl-L-Tyrosine substrate

SMILES: CC(C)C[C@H](NC(=O)[C@@H](NC(=O)[C@@H](NC(=O)OCc1ccccc1)C(C)C)C(C)C)[C@@H](O)CC(=O)O
ID50 (Sus scrofa [1]): 0.1 µg/mL (≈ 0.197 µM) | ID50 (Sus scrofa [2]): 1 µg/mL (≈ 1.97 µM)

SMILES: CC(C)C[C@@H](NC(=O)[C@@H](NC(=O)[C@@H](NC(=O)OCc1ccccc1)C(C)C)C(C)C)[C@H](O)CC(=O)O
ID50 (Sus scrofa [1]): 18 µg/mL (≈ 35.5 µM) | ID50 (Sus scrofa [2]): 42 µg/mL (≈ 82.7 µM)

SMILES: CC(C)CC(=O)N[C@H](C(=O)N[C@H](C(=O)N[C@@H](CC(C)C)[C@@H](O)CC(=O)N[C@@H](C)C(=O)N[C@@H](CC(C)C)[C@@H](O)CC(=O)O)C(C)C)C(C)C
ID50 (Sus scrofa [1]): 0.0052 µg/mL (≈ 0.00758 µM) | ID50 (Sus scrofa [2]): 2 µg/mL (≈ 2.92 µM)

Other lines, results leading:

ID50 (Sus scrofa [1]): 21 µg/mL (≈ 41.4 µM) | ID50 (Sus scrofa [2]): 12 µg/mL (≈ 23.6 µM)
SMILES: CC(C)C[C@H](NC(=O)[C@@H](NC(=O)[C@@H](NC(=O)OCc1ccccc1)C(C)C)C(C)C)[C@H](O)CC(=O)O

ID50 (Sus scrofa [1]): 224 µg/mL (≈ 441 µM) | ID50 (Sus scrofa [2]): 219 µg/mL (≈ 431 µM)
SMILES: CC(C)C[C@@H](NC(=O)[C@@H](NC(=O)[C@@H](NC(=O)OCc1ccccc1)C(C)C)C(C)C)[C@@H](O)CC(=O)O
